According to paper PMC8623047, “Novel Antioxidants and α-Glycosidase and Protein Tyrosine Phosphatase 1B Inhibitors from an Endophytic Fungus Penicillium brefeldianum F4a” (Journal of Fungi, 2021):

Key:
[1] = biological target: T1, PTP1B (Homo sapiens, UniProt P18031); assay: PTP1B inhibitory assay (p-NPP substrate); type: biochemical; conditions: mean ± SD, n = 3; sample concentration achieving 50% of activity
T1 sequence (P18031 1-435): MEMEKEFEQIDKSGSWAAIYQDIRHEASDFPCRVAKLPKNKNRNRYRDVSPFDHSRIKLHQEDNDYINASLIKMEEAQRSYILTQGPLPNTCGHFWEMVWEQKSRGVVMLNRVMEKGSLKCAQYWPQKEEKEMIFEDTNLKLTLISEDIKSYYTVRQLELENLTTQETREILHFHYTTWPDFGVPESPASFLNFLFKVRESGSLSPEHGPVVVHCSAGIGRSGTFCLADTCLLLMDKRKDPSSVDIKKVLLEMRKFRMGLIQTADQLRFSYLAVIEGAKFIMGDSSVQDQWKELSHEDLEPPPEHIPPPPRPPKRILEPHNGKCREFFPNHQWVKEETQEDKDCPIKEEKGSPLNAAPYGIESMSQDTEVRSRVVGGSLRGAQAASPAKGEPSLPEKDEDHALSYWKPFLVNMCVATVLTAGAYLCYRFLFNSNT
Method: The PTP1B inhibitory activity was established according to the previously reported methods. The reagent para-nitrophenyl phosphate (p-NPP) was used as a substrate for PTP1B. Then, 81 μL enzyme in buffer (pH 7.5), including EDTA (1 mM), Tris-HCl (25 mM), dithiothreitol (DTT) (1 mM), β-mercaptoethanol (2 mM), and 10 μL of sample at various concentrations in DMSO (the blank control used 10 μL of DMSO instead of the sample), was incubated in 96-well plates at 37 °C for 10 min. Then, 4 μL p-NPP (10 mM) in buffer was added and incubated at 37 °C for 30 min. Next, 5 μL of 2 M NaOH solution was added to terminate the reaction. Then, the absorbance was determined at 405 nm wavelength.

[2] = DPPH radical scavenging assay; conditions: mean ± SD, n = 3; 30 min, 517 nm
Method: The DPPH free radicals scavenging assay was tested according to the previously reported methods. First, 100 μL of sample at different concentrations in ethanol (the blank control used 100 μL of ethanol instead of the sample) was added to 96 wells, followed by 100 μL of 0.15 mM DPPH. […] L-Ascorbic acid was used as the positive control.

[3] = ABTS radical scavenging assay; conditions: mean ± SD, n = 3; 6 min, 734 nm
Method: The ABTS free radical scavenging assay was tested according to the previously reported methods. […] The mixture was incubated in darkness at room temperature for 12 h before use. […] Then, 100 μL of the sample at various concentrations in ethanol (the blank control used 100 μL of ethanol instead of the sample) was added to 3.0 mL of diluted ABTS^•+ solution and mixed vigorously. […] L-Ascorbic acid was used as the positive control.

[4] = previous studies; cited from earlier work

Row | SMILES | EC50 [1] [µM] | EC50 [2] [µM] | EC50 [3] [µM] | DPPH• scavenging activity IC50 [4] [µg/mL]
1 | COc1cc(O)cc(C)c1Cc1oc(C[C@@H](C)O)cc1C(=O)O [Compound 1, peniorcinol A] | > 50 | > 100 | 21.9 ± 1.06 | –
2 | COc1cc(O)cc(C)c1Cc1oc(C)cc1C(=O)O [Compound 2, peniorcinol B] | > 50 | > 100 | 28.2 ± 2.87 | –
3 | C=C1C=CC(=O)[C@]1(CO)Cc1c(C)cc(O)cc1OC [Compound 3, peniorcinol C] | > 50 | > 100 | 32.7 ± 3.86 | –
4 | C[C@]1(O)Cc2oc3c(C(=O)O)c(O)c(O)cc3c(=O)c2CO1 [Compound 4, penialidin A] | > 50 | > 100 | 14.5 ± 0.46 | 156.38
5 | C[C@]1(O)Cc2oc3cc(O)c(O)cc3c(=O)c2CO1 [Compound 5, penialidin F] | > 50 | 28.4 ± 3.16 | 7.61 ± 0.46 | –

Second part, led by results:

Row | EC50 [1] [µM] | EC50 [2] [µM] | EC50 [3] [µM] | SMILES | DPPH• scavenging activity IC50 [4] [µg/mL]
6 | > 50 | 30.1 ± 2.83 | 15 ± 2.57 | CC1=Cc2oc3cc(O)c(O)cc3c(=O)c2CO1 [Compound 6, myxotrichin C] | –
7 | 8.87 ± 0.91 | – | – | Cc1cc2nc3c(=O)[nH]c(=O)nc-3n(C[C@H](O)[C@H](O)[C@H](O)CO)c2cc1C [Compound 7, riboflavin] | –
8 | 11.7 ± 1.03 | – | – | O=C(O)Cc1c[nH]c2ccccc12 [Compound 8, indole-3-acetic acid] | –
9 | > 50 | > 100 | 30 ± 4.17 | COc1cc(O)cc(C)c1CC(=O)O [Compound 9, 2-(4-hydroxy-2-methoxy-6-methylphenyl) acetic acid] | –
10 | – | 6.12 ± 0.17 | 18.8 ± 3.39 | O=C1O[C@H]([C@@H](O)CO)C(O)=C1O [L-Ascorbic acid, reference compound] | –
